# Measurements: patent US20100080762A1, “SKIN CARE COMPOSITION” (priority 2006, published 2010)
# Assays:
# Format in all cases: cell-based, human
# HBD2 = test: Cytokine mix-induced keratinocyte inflammation model, HBD2 mRNA expression (real-time PCR); conditions: NHEK; for HBD2, % compared to the control treated only with cytokine mix: 2 h pre-treatment, cytokine mix 24 h
# Experimental: (§1) Two assays were performed to investigate the effect of selected compounds of this invention in an inflammation model with human skin keratinocytes.
# (§2) In this model, the association of 3 cytokines that induce a strong synergistic effect on keratinocytes in culture (Boniface K, Diveu C, Morel F, Pedretti N, Froger J, Ravon E, Garcia M, Venereau E, Preisser L, Guignouard E, Guillet G, Dagregorio G, Pene J, Moles J P, Yssel H, Chevalier S, Bernard F X, Gascan H, Lecron J C. Oncostatin M secreted by skin infiltrating T lymphocytes is a potent keratinocyte activator involved in skin inflammation. J Immunol. 2007 Apr. 1;178(7):4615-22), is used to measure the expression of selected markers for keratinocyte inflammation: the antibacterial/chemoattractive markers S100A7/psoriasin and defensin HBD2/4
# (§3) Normal human epidermal keratinocytes (NHEK pool K015, 3e passage) were cultured under the following conditions: • Culture: 37° C., 5% CO2 • Culture medium: SFM (Invitrogen 17005075) • Epidermal Growth Factor 0.25 ng/ml and pituitary extract 25 μg/ml • (EGF, EP, Invitrogen 17005075) • Gentamycine 25 μg/ml (Sigma G1397) • Assay medium: SFM without EGF and pituitary extract (Invitrogen 17005075)
# (§4) Keratinocytes were pre-cultivated in culture medium. At confluence, the culture medium was changed into assay medium (SFM without EGF and pituitary extract) containing or not (control) the test compounds and the cells were pre-treated for 2 h at 37° C. and 5% CO2. At the end of the pre-treatment, the cytokine mix consisting of oncostatin M (OSM), IL-17 and […], was added to the cultures for 24 h at 37° C. and 5% CO2 (a non-treated and non-stimulated control was run in parallel). At the end of the experiment, the cells were washed in PBS buffer (Invitrogen 14190094) and immediately frozen at −80° C. with 300 μl per well of Tri-reagent (Sigma T9424).
# (§5) Primers couples allowing the amplification of a specific PCR product from each selected marker were used. Liver glyceraldehyde 3-phosphate dehydrogenase (G3PDH) was used as a reference marker in this experiment.
# Defensin beta 4 (DEFB4), beta-defensin 2 (hBD2, DEFB2);
# skin-antimicrobial peptide 1 (SAP1) HBD2 NM_004942
# (§6) RNA Extraction and Reverse Transcription • Extraction of total RNA by Tri-Reagent according to the protocol recommended by the supplier. • Elimination of contaminant DNA by DNAse treatment using the “DNA-free” system (Ambion). • Reverse-transcription of mRNA in the presence of oligo(dT) and Superscript II reversetranscriptase (Invitrogen).
# (§7) The PCR reactions (Polymerase Chain Reactions) were performed using the LightCycler® system (Roche Molecular Systems Inc.) according to the protocol recommended by the supplier. This system allows rapid and powerful PCR reactions.
# (§8) The reaction mix (10 μl final) was added as follows: • 2.5 μl of cDNA diluted at 1/10e. • primers forward and reverse • reagent mix (Roche) containing tag DNA polymerase, SYBR Green I and MgCl2.
# (§9) The incorporation of fluorescence in amplified DNA was measured continuously during the PCR cycles. […] The RE value was expressed in arbitrary units (AU) according to the formula:
# (§10) (½ number of cycles)×10^6
# S100A7/psoriasin = test: Cytokine mix-induced keratinocyte inflammation model, S100A7 mRNA expression (real-time PCR); conditions: NHEK; for S100A7, % compared to the control treated only with cytokine mix: 2 h pre-treatment, cytokine mix 24 h
# Experimental: as §1, §2, §3, §4, §5, §6, §7, §8, §9, §10
# Interleukin (IL)6 [1] = test: TNFα-stimulated HaCaT keratinocytes, release of IL6 into the medium (ELISA), Experiment 1
# Experimental: (§11) In a second assay, the human keratinocyte cell line HaCat was stimulated with the inflammatory cytokine TNFα and the release of Interleukin (IL)6 into the medium was analysed with a commercially available “Enzyme Linked Immunosorbent Assay” (ELISA).
# (§12) HaCaT cells were cultivated under the conditions explained in detail in Wertz et al., Free Radical Biology & Medicine, Vol. 37, No. 5, pp. 654-670, 2004. Cells were pre-cultivated in medium containing with lycopene at a concentration of 1 μmol/L for 48 h to give the cells sufficient time to accumulate lycopene. Lycopene was solubilized in a stock solution with Tetrahydrofuran (THF) and diluted into the medium such that the end concentration was 0.1% THF. After the pre-incubation period, cells were stimulated with 10 μg/ml TNFα for 5 h, after which the medium was collected and frozen. Cells were harvested by trypsinisation and counted according to standard procedures. Il6 levels in the medium were standardized to the number of cells in the wells and expressed as pg/10^6 cells
# Interleukin (IL)6 [2] = test: HaCaT keratinocytes, base line production of IL6 (no TNFα), Experiment 2
# Experimental: as §11
# as §12, with “After the pre-incubation period, cells were stimulated with 10 μg/ml TNFα for 5 h, after which the medium was collected and frozen.” left out
# This experiment was performed to investigate whether two other carotenoid representatives, beta-carotene and beta-cryptoxanthin, are able to reduce the general base line production of inflammatory mediators of normal skin
Compound,"HBD2, % compared to the control treated only with cytokine mix (HBD2; 0.2 μmol/L)","HBD2, % compared to the control treated only with cytokine mix (HBD2; 1.0 μmol/L)","HBD2, % compared to the control treated only with cytokine mix (HBD2; 5.0 μmol/L)",Effect on cytokine mix induction of HBD2/4 mRNA (in words) (HBD2),"S100A7, % compared to the control treated only with cytokine mix (S100A7/psoriasin; 0.2 μmol/L)","S100A7, % compared to the control treated only with cytokine mix (S100A7/psoriasin; 1.0 μmol/L)","S100A7, % compared to the control treated only with cytokine mix (S100A7/psoriasin; 5.0 μmol/L)",Effect on cytokine mix induction of S100A7 mRNA (in words) (S100A7/psoriasin),Effect on reaction of keratinocytes to pro-inflammatory stimulus (in words) (Interleukin (IL)6 [1]),Effect on base line IL6 secretion (in words) (Interleukin (IL)6 [2]),IL6 pg/10^6 cells ± SD (Interleukin (IL)6 [2]; 0.1 μmol/L),IL6 pg/10^6 cells ± SD (Interleukin (IL)6 [2]; 0.25 μmol/L),IL6 pg/10^6 cells ± SD (Interleukin (IL)6 [2]; 0.5 μmol/L),IL6 pg/10^6 cells ± SD (Interleukin (IL)6 [2]; 1.0 μmol/L),IL6 pg/10^6 cells ± SD (Interleukin (IL)6 [2]; 3.0 μmol/L)
(−)-Epigallocatechin gallate [EGCG],59%,43%,33%,strongly inhibited,66%,20%,27%,strongly inhibited,,,,,,,
"CC(C)=CCC/C(C)=C/C=C/C(C)=C/C=C/C(C)=C/C=C/C=C(C)/C=C/C=C(C)/C=C/C=C(\C)CCC=C(C)C [Lycopene, lycopene]",,,,,,,,,significantly reduce,,,,,,
"Oc1ccc(C=Cc2cc(O)cc(O)c2)cc1 [Resveratrol, resveratrol]",61%,51%,47%,strongly inhibited,68%,66%,53%,strongly inhibited,,,,,,,
"OCCc1ccc(O)c(O)c1 [Hydroxytyrosol, hydroxytyrosol]",50%,51%,40%,,60%,57%,49%,,,,,,,,
"CC1=C(/C=C/C(C)=C/C=C/C(C)=C/C=C/C=C(C)/C=C/C=C(C)/C=C/C2=C(C)C[C@@H](O)CC2(C)C)C(C)(C)CCC1 [Beta-cryptoxanthin, beta-cryptoxanthin]",,,,,,,,,,moderate effect,264.76 pg/10^6 cells,268.46 pg/10^6 cells,286.77 pg/10^6 cells,,
"CC1=C(/C=C/C(C)=C/C=C/C(C)=C/C=C/C=C(C)/C=C/C=C(C)/C=C/C2=C(C)CCCC2(C)C)C(C)(C)CCC1 [Beta-carotene, beta-carotene]",,,,,,,,,,can reduce the base line level,315.86 pg/10^6 cells,225.15 pg/10^6 cells,,241.8 pg/10^6 cells,291.85 pg/10^6 cells
